“And” between values parts separate entries of the source, which are not always exact repeats. Identical values can stand only once. Like-named read-outs stand apart in the source and are kept apart here.
How the values were obtained:
KCNQ2 = KCNQ2 (Homo sapiens, UniProt O43526); experiment: KCNQ2 channel inhibition; assay type: cell-based; design: KCNQ2 inhibition, single recordings: unit not given here
Excerpt: Whole‐cell patch‐clamp recordings were obtained either in transiently transfected CHO‐K1 cells or in primary cultured astrocytes at room temperature using standard patch‐clamp techniques with an Axopatch‐700B amplifier (Axon Instruments). The signals were filtered at 2 kHz and sampled at 20 kHz using the Digidata 1440A interface (Axon Instruments). The resistance of borosilicate glass pipettes was typically 2–4 MΩ when filled with the internal solution. Drug application was facilitated using a BPS perfusion system (ALA Scientific Instruments). Macroscopic currents generated by expressed potassium channels were recorded under the voltage‐clamp conditions with an internal pipette solution composed of (in mM): 140 KCl, 5 NaCl, 1 CaCl2, 1 MgCl2, 10 HEPES, and 10 EGTA, pH 7.2 adjusted with KOH. The external solution contained (in mM): 140 NaCl, 5 KCl, 2 CaCl2, 1 MgCl2, 10 glucose, and 10 HEPES, pH 7.4 adjusted with NaOH. Currents were elicited with a hyperpolarized voltage at −120 mV from the holding potential of −80 mV, followed by a ramp voltage depolarizing to +50 mV. Astrocytic resting membrane potentials were recorded under current‐clamp conditions (I = 0 pA) using standard internal and external solutions, determined immediately after achieving whole‐cell mode.

[1] = Brain penetration (plasma and brain concentration, LC-MS/MS); assay type: in vivo, mice; conditions: for Kp at 1 h / concentration at 1 h: male, C57BL/6J, mouse; for Kp at 1 h: brain and plasma, read-out: Brain/Plasma concentration ratio; for concentration at 1 h: 1 h post-dosing
Procedure: Male C57BL/6J mice were used for both blood–brain penetration and plasma/tissue distribution studies, with mice assigned to three groups: 10 mg kg^−1 JX3212 (n = 3), 20 mg kg^−1 JX3212 (n = 3) for blood–brain penetration, and 10 mg kg^−1 JX3212 for plasma/tissue distribution (all administered via intraperitoneal injection), where mice in the blood–brain penetration groups were fasted for 12 h prior to drug administration and 2 h post‐administration; 1 h after drug administration, 0.2 mL of blood was collected from the retro‐orbital/orbital venous plexus into 1.5 mL heparinized tubes, centrifuged at 11 000 rpm for 5 min to obtain plasma (stored at −80 °C for blood–brain penetration groups), while whole brains were excised for blood–brain penetration groups and whole brains plus kidneys (rinsed with physiological saline, blotted dry on filter paper, and accurately weighed) for the plasma/tissue distribution group; plasma samples (20 µL) were mixed with 20 µL internal standard solution and 300 µL acetonitrile for protein precipitation, vortexed for 15 min, centrifuged at 3700 rpm for 15 min at 4 °C, and the supernatant was collected, whereas brain and kidney samples were homogenized in acetonitrile at 10× tissue weight (8000 rpm, 3 × 30 s), sonicated for 5 min, and processed identically to plasma samples; the concentrations of JX3212 in plasma and tissues were quantified by liquid chromatography–tandem mass spectrometry (LC−MS/MS), with lower limits of quantification set to 50 ng mL^−1 for plasma and 50 ng g^−1 for brain tissue.

mice = experiment: 21-day chronic administration: body weight, organ weight, serum biochemistry
Kir4.1 = molecular target: T1, Kir4.1 (Homo sapiens, UniProt P78508); experiment: Whole-cell patch clamp, Kir4.1 currents in transfected CHO-K1 cells; assay type: cell-based; conditions: for inhibition at 1 µM: CHO-K1, 1 μM; for inhibition at 10 µM: CHO-K1, 10 μM; for IC50: whole-cell patch clamp
T1 construct: host or cells: CHO-K1
T1 sequence (P78508 1-379): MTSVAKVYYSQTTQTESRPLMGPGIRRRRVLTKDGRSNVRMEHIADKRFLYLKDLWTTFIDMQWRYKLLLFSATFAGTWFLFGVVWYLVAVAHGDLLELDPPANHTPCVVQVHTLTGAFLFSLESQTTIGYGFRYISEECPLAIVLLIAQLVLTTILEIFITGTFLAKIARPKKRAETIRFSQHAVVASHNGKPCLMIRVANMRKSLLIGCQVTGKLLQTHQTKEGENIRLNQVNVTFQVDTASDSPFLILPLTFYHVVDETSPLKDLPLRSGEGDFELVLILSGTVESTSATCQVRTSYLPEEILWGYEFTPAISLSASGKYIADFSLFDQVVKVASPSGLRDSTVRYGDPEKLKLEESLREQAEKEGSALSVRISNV
How it was run: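 Transiently transfected CHO-K1 cells (with EGFP), whole-cell voltage clamp at room temperature; pipette 140 mM KCl pH 7.2, bath 140 mM NaCl/5 mM KCl pH 7.4. Currents evoked from −80 mV holding by a step to −120 mV then ramp to +50 mV; compounds applied by perfusion.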

C57BL/6J mice = experiment: Open field test (OFT) after chronic administration; assay type: in vivo; conditions: chronic 10 mg kg−1 per day
Procedure: This test was used to assess anxiety‐related behaviors in the mice. C57BL/6J mice were individually habituated to a 40 × 40 × 40 cm^3 open field arena under dim light for […]. Locomotor activity during the final 5 min was digitally recorded (30 fps) and analyzed using Tracking Master (Future Life Science (Shanghai) Co., Ltd., Shanghai, China). The primary endpoints included the total ambulatory distance (cm) and center‐zone exploration frequency (20 × 20 cm^2 central area).

[2] = mice, 10 mg/kg i.p., 1 h, 10 mg/kg
[3] = mice, 20 mg/kg i.p., 1 h, 20 mg/kg
[4] = 10 mg/kg, 21-day chronic administration, individual animals
[5] = serum, 10 mg/kg, 21-day chronic administration, individual animals

c1ccc2c(c1)oc1ccc(Nc3ccnc(NCCCN4CCOCC4)n3)cc12 [JX3212, N^4-(dibenzo[b,d]furan-2-yl)-N^2-(3-morpholinopropyl)pyrimidine-2,4-diamine]
IC50 (KCNQ2): 5990 nM | KCNQ2 inhibition, single recordings (KCNQ2; concentration 3): 22.0588 and 21.8921 and 13.4681 | KCNQ2 inhibition, single recordings (KCNQ2; concentration 10): 79.5346 and 67.5255 and 78.5615 | KCNQ2 inhibition, single recordings (KCNQ2; concentration 30 (unit not given)): 97.6879 and 84.1578 and 95.4545 | Kp at 1 h ([1]; ip, 10 mg/kg, mice, 10 mg/kg i.p., 1 h): > 10 | Kp at 1 h ([1]; ip, 20 mg/kg, mice, 20 mg/kg i.p., 1 h): 12.9 ± 1 | concentration at 1 h ([1]; brain, intraperitoneal, 10 mg/kg, converted from 2533.3 ng/mL, read-out: brain concentration expressed as molar): ~6.3 µM | concentration at 1 h ([1]; brain, ip, 10 mg/kg, mice, 10 mg/kg i.p., read-out: Brain Calculated Concentration): 2530 ± 745 ng/mL | concentration at 1 h ([1]; brain, ip, 20 mg/kg, mice, 20 mg/kg i.p., read-out: Brain Calculated Concentration): 6690 ± 816 ng/mL | concentration at 1 h ([1]; plasma, ip, 10 mg/kg, mice, 10 mg/kg i.p., mean ± SD, read-out: Plasma Calculated Concentration): 234 ± 14.4 ng/mL | concentration at 1 h ([1]; plasma, ip, 20 mg/kg, mice, 20 mg/kg i.p., read-out: Plasma Calculated Concentration): 521 ± 63.3 ng/mL | Brain/Plasma concentration ratio [1, 2]: 10.72 | logBB (blood–brain partitioning coefficient) [1, 2]: 1.02 ± 0.10 and > 1 and 1.02 | Brain/Plasma concentration ratio [1, 3]: > 10 | logBB [1, 3]: 1.11 ± 0.03 and > 1 | body weight during 21-day chronic administration (in words) (mice; 10 mg kg−1 per day, vs vehicle): no evident effect on body weight | Kidney/Body Weight Ratio (%) (mice; [4]): 1.122% and 1.187% and 1.1008% and 0.9864% and 1.07% (2×) and 1.145% and 1.0748% and 1.06% and 1.171% | Liver/Body Weight Ratio (%) (mice; [4]): 5.072% and 4.477% and 4.872% and 4.814% and 4.623% and 5.084% and 4.1308% and 4.637% and 4.391% and 4.945% | Body weight (mice; 10 mg/kg, day 7, individual animals): 24.2 (3×) and 24 and 25.6 and 25.4 and 23.8 | Body weight (mice; 10 mg/kg, day 8, individual animals): 24 and 25.9 and 24.2 (2×) and 24.4 and 25 and 26 | Body weight (mice; 10 mg/kg, day 9, individual animals): 25 and 24 and 26.3 and 25.6 (2×) and 24.7 and 24.1 | Body weight (mice; 10 mg/kg, day 10, individual animals): 26.3 and 25.4 (2×) and 24.1 and 25 and 25.5 | liver-to-body and kidney-to-body weight ratio (in words) (mice; 21-day administration): no appreciable differences | serum aspartate aminotransferase and urea levels (in words) (mice; 21-day administration): comparable | serum creatinine level (in words) (mice; 21-day administration): marked decreases in creatinine levels | ALT (mice; [5]): 36 and 35 and 41 and 32 and 37 and 33 and 31 and 29 | AST (mice; [5]): 167 and 207 and 243 and 139 and 147 and 172 and 200 and 131 and 133 and 155 | Cr (mice; [5]): 19 and 18 and 20 and 21 and 22 and 23 | Urea (mice; [5]): 5.59 and 3.68 and 6 and 5.19 and 5.88 and 6.46 and 5.16 and 5.73 and 5.29 and 5.71 | inhibition at 0.5 µM (Kir4.1; CHO-K1, 0.5 μM, +50 mV, read-out: Kir4.1 Inhibition ± SD (%) at 0.5 μM, +50 mV): 82.8 ± 1.51% | inhibition at 0.5 µM (Kir4.1; CHO-K1, 0.5 μM, -120 mV, read-out: Kir4.1 Inhibition ± SD (%) at 0.5 μM, -120 mV): 73.2 ± 3.59% | inhibition at 0.5 µM (Kir4.1; CHO-K1, 0.5 µM, read-out: Kir4.1 inhibition at 0.5 µM): > 60% | inhibition at 1 µM (Kir4.1; +50 mV, read-out: Kir4.1 Inhibition ± SD (%) at 1 μM, +50 mV): 82.5 ± 5.51% | inhibition at 1 µM (Kir4.1; -120 mV, read-out: Kir4.1 Inhibition ± SD (%) at 1 μM, -120 mV): 84.5 ± 3.09% | inhibition at 3 µM (Kir4.1; CHO-K1, 3 µM, mean ± SEM, read-out: current inhibition, Kir4.1 WT): 92.4 ± 2.25% | inhibition at 10 µM (Kir4.1; +50 mV, read-out: Kir4.1 Inhibition ± SD (%) at 10 μM, +50 mV): 96 ± 1.52% | inhibition at 10 µM (Kir4.1; -120 mV, read-out: Kir4.1 Inhibition ± SD (%) at 10 μM, -120 mV): 97.3 ± 1.01% | inhibition at 3 µM (Kir4.1; CHO-K1, JX3212 3 µM (Fig 2A), read-out: Kir isoforms: Kir4.1 inhibition, single recordings): 94.9% | inhibition at 3 µM (Kir4.1; CHO-K1, JX3212 3 µM (Fig 2D), read-out: Mutation: Kir4.1 WT inhibition, single recordings): 92.1% | Kir isoforms: Kir4.1 inhibition, single recordings (Kir4.1; JX3212 3 µM (Fig 2A)): 94.131 and 95.7029 | Mutation: Kir4.1 WT inhibition, single recordings (Kir4.1; JX3212 3 µM (Fig 2D)): 94.7739 and 90.2954 | improvement in target activity over lead EHop-016 (Kir4.1; Kir4.1 IC50 ratio): 2.6 fold | IC50 (Kir4.1; CHO cells transiently expressing Kir4.1, +50 mV, read-out: IC50 for Kir4.1 inhibition (+50 mV, outward currents)): 190 nM | IC50 (Kir4.1; CHO cells transiently expressing Kir4.1, −120 mV, read-out: IC50 for Kir4.1 inhibition (−120 mV, inward currents)): 280 nM | OFT total and central distance traveled (in words) (C57BL/6J mice): no pronounced differences

— publication PMC12903969, “Discovery of a Novel and Potent Kir4.1 Inhibitor as a Safe and Rapid‐Onset Antidepressant Agent in Mice” (Advanced Science, 2025)
